Data published in patent publication US20240315993A1, “ANTIPARASITIC COMPOUNDS” (Intervet Inc., priority 2021, published 2024).

Experiments:
[1] = test system: juvenile soft ticks (Ornithodoros moubata); experiment: Guinea pig - efficacy against argaside tick; assay type: in vivo; details: for effective to control ticks: 5 mg/kg
Method: (§1) Guinea pigs were locally co-infested (using an infestation device on a shaved skin area) with juvenile soft ticks (Ornithodoros moubata) and bed bugs (Cimex lectularius) before the treatment day (Day 0) to provide a baseline-negative control value. Guinea pigs were treated orally (by gavage) or subcutaneously at a dose of 5 mg/kg bodyweight of a test compound in a formulation of 10% DMF/Emulsifier+90% Aqua ad injectabilia.
(§2) Repeated local infestations with both parasites were performed at different time points after treatment. Within approximately 45 min after each infestation ten engorged ticks and ten engorged bed bugs were • collected and the percentage of dead and damaged parasites per species were • assessed approximately 24 hours following collection. The efficacy was • calculated as % of inhibition ‘killed+damaged’ parasites in a treated group in comparison to the baseline-negative control (using a modified Schneider Orelli's formula).
(§3) Results: Activity of the test compounds at different evaluation time-points (≥80% inhibition were found active): […]

[2] = test system: bed bugs (Cimex lectularius); experiment: Guinea pig - efficacy against bed bug; assay type: in vivo; details: for effective to control bed bugs: 5 mg/kg
Method: as §1, §2, §3

[3] = test system: Cabbage Looper (Trichoplusia ni); details: Cabbage Looper second instar larvae, 128-well diet tray, 50 μg/cm^2, five to seven days, average of eight wells; cited from earlier work
[4] = test system: Yellow Fever Mosquito (Aedes aegypti); details: Aedes aegypti larvae about 1 day old, 96-well plate, scored after 3 days; cited from earlier work
[5] = 5 mg/kg subcutaneous, after 7 days
[6] = 5 mg/kg subcutaneous, after 10 days
[7] = 5 mg/kg subcutaneous, after 14 days
[8] = 5 mg/kg subcutaneous, after 17 days
[9] = at least until Day 10, both administration routes (oral, subcutaneous)
[10] = 5 mg/kg subcutaneous, after 21 days
[11] = 5 mg/kg subcutaneous, after 24 days
[12] = 5 mg/kg subcutaneous, after 28 days
[13] = 5 mg/kg subcutaneous, after 31 days
[14] = for at least one week, both administration routes
[15] = 5 mg/kg subcutaneous, after 35 days

O=C(Nc1ncc(F)cc1F)c1cc(NC(=O)C2C(c3cc(Cl)c(F)c(Cl)c3)C2(Cl)Cl)ccc1Cl (stereo not shown) [Compound 469]
immediate activity: activity against tick nymphs (≥80% inhibition, killed+damaged) ([1]; 5 mg/kg oral, Day 0) | activity against tick nymphs (≥80% inhibition, killed+damaged) ([1]; 5 mg/kg subcutaneous, Day 0) | activity against bed bugs (≥80% inhibition, killed+damaged) ([2]; 5 mg/kg oral, Day 0) | activity against bed bugs (≥80% inhibition, killed+damaged) ([2]; 5 mg/kg subcutaneous, Day 0)
100%: effective to control ticks [1, 9] | effective to control bed bugs [2, 9]
activity: activity against tick nymphs (≥80% inhibition, killed+damaged) ([1]; 5 mg/kg oral, after 7 days) | activity against tick nymphs (≥80% inhibition, killed+damaged) ([1]; 5 mg/kg oral, after 10 days) | activity against tick nymphs (≥80% inhibition, killed+damaged) [1, 5] | activity against tick nymphs (≥80% inhibition, killed+damaged) [1, 6] | activity against tick nymphs (≥80% inhibition, killed+damaged) [1, 7] | activity against tick nymphs (≥80% inhibition, killed+damaged) [1, 8] | activity against bed bugs (≥80% inhibition, killed+damaged) ([2]; 5 mg/kg oral, after 7 days) | activity against bed bugs (≥80% inhibition, killed+damaged) ([2]; 5 mg/kg oral, after 10 days) | activity against bed bugs (≥80% inhibition, killed+damaged) [2, 5] | activity against bed bugs (≥80% inhibition, killed+damaged) [2, 6] | activity against bed bugs (≥80% inhibition, killed+damaged) [2, 7] | activity against bed bugs (≥80% inhibition, killed+damaged) [2, 8] | activity against bed bugs (≥80% inhibition, killed+damaged) [2, 10]

O=C(Nc1ncc(F)cc1F)c1cc(NC(=O)C2C(c3cc(Cl)c(Cl)c(Cl)c3)C2(Cl)Cl)ccc1Cl (stereo not shown) [Compound 470]
activity: activity against tick nymphs (≥80% inhibition, killed+damaged) ([1]; 5 mg/kg oral, after 7 days) | activity against tick nymphs (≥80% inhibition, killed+damaged) ([1]; 5 mg/kg oral, after 10 days) | activity against tick nymphs (≥80% inhibition, killed+damaged) ([1]; 5 mg/kg oral, after 14 days) | activity against tick nymphs (≥80% inhibition, killed+damaged) ([1]; 5 mg/kg oral, after 17 days) | activity against tick nymphs (≥80% inhibition, killed+damaged) [1, 5] | activity against tick nymphs (≥80% inhibition, killed+damaged) [1, 6] | activity against tick nymphs (≥80% inhibition, killed+damaged) [1, 7] | activity against tick nymphs (≥80% inhibition, killed+damaged) [1, 8] | activity against tick nymphs (≥80% inhibition, killed+damaged) [1, 10] | activity against tick nymphs (≥80% inhibition, killed+damaged) [1, 11] | activity against tick nymphs (≥80% inhibition, killed+damaged) [1, 12] | activity against tick nymphs (≥80% inhibition, killed+damaged) [1, 13] | activity against bed bugs (≥80% inhibition, killed+damaged) ([2]; 5 mg/kg oral, after 7 days) | activity against bed bugs (≥80% inhibition, killed+damaged) ([2]; 5 mg/kg oral, after 10 days) | activity against bed bugs (≥80% inhibition, killed+damaged) ([2]; 5 mg/kg oral, after 14 days) | activity against bed bugs (≥80% inhibition, killed+damaged) ([2]; 5 mg/kg oral, after 17 days) | activity against bed bugs (≥80% inhibition, killed+damaged) ([2]; 5 mg/kg oral, after 21 days) | activity against bed bugs (≥80% inhibition, killed+damaged) ([2]; 5 mg/kg oral, after 24 days) | activity against bed bugs (≥80% inhibition, killed+damaged) ([2]; 5 mg/kg oral, after 28 days) | activity against bed bugs (≥80% inhibition, killed+damaged) [2, 5] | activity against bed bugs (≥80% inhibition, killed+damaged) [2, 6] | activity against bed bugs (≥80% inhibition, killed+damaged) [2, 7] | activity against bed bugs (≥80% inhibition, killed+damaged) [2, 8] | activity against bed bugs (≥80% inhibition, killed+damaged) [2, 10] | activity against bed bugs (≥80% inhibition, killed+damaged) [2, 11] | activity against bed bugs (≥80% inhibition, killed+damaged) [2, 12] | activity against bed bugs (≥80% inhibition, killed+damaged) [2, 13] | activity against bed bugs (≥80% inhibition, killed+damaged) [2, 15]
100%: effective to control ticks [1, 14] | effective to control bed bugs [2, 14]
immediate activity: activity against tick nymphs (≥80% inhibition, killed+damaged) ([1]; 5 mg/kg oral, Day 0) | activity against tick nymphs (≥80% inhibition, killed+damaged) ([1]; 5 mg/kg subcutaneous, Day 0) | activity against bed bugs (≥80% inhibition, killed+damaged) ([2]; 5 mg/kg oral, Day 0) | activity against bed bugs (≥80% inhibition, killed+damaged) ([2]; 5 mg/kg subcutaneous, Day 0)

O=C(Nc1ncc(F)cc1F)c1cc(NC(=O)C2C(c3cc(C(F)(F)F)cc(C(F)(F)F)c3)C2(Cl)Cl)ccc1Cl (stereo not shown) [Compound 471]
100%: effective to control ticks [1, 14] | effective to control bed bugs [2, 14]
activity: activity against tick nymphs (≥80% inhibition, killed+damaged) ([1]; 5 mg/kg oral, after 7 days) | activity against tick nymphs (≥80% inhibition, killed+damaged) ([1]; 5 mg/kg oral, after 10 days) | activity against tick nymphs (≥80% inhibition, killed+damaged) ([1]; 5 mg/kg oral, after 14 days) | activity against tick nymphs (≥80% inhibition, killed+damaged) ([1]; 5 mg/kg oral, after 17 days) | activity against tick nymphs (≥80% inhibition, killed+damaged) ([1]; 5 mg/kg oral, after 21 days) | activity against tick nymphs (≥80% inhibition, killed+damaged) ([1]; 5 mg/kg oral, after 24 days) | activity against tick nymphs (≥80% inhibition, killed+damaged) ([1]; 5 mg/kg oral, after 28 days) | activity against tick nymphs (≥80% inhibition, killed+damaged) ([1]; 5 mg/kg oral, after 31 days) | activity against tick nymphs (≥80% inhibition, killed+damaged) ([1]; 5 mg/kg oral, after 35 days) | activity against tick nymphs (≥80% inhibition, killed+damaged) [1, 5] | activity against tick nymphs (≥80% inhibition, killed+damaged) [1, 6] | activity against tick nymphs (≥80% inhibition, killed+damaged) [1, 7] | activity against tick nymphs (≥80% inhibition, killed+damaged) [1, 8] | activity against tick nymphs (≥80% inhibition, killed+damaged) [1, 10] | activity against tick nymphs (≥80% inhibition, killed+damaged) [1, 11] | activity against tick nymphs (≥80% inhibition, killed+damaged) [1, 12] | activity against tick nymphs (≥80% inhibition, killed+damaged) [1, 13] | activity against tick nymphs (≥80% inhibition, killed+damaged) [1, 15] | activity against bed bugs (≥80% inhibition, killed+damaged) ([2]; 5 mg/kg oral, after 7 days) | activity against bed bugs (≥80% inhibition, killed+damaged) ([2]; 5 mg/kg oral, after 10 days) | activity against bed bugs (≥80% inhibition, killed+damaged) ([2]; 5 mg/kg oral, after 14 days) | activity against bed bugs (≥80% inhibition, killed+damaged) ([2]; 5 mg/kg oral, after 17 days) | activity against bed bugs (≥80% inhibition, killed+damaged) ([2]; 5 mg/kg oral, after 21 days) | activity against bed bugs (≥80% inhibition, killed+damaged) ([2]; 5 mg/kg oral, after 24 days) | activity against bed bugs (≥80% inhibition, killed+damaged) ([2]; 5 mg/kg oral, after 28 days) | activity against bed bugs (≥80% inhibition, killed+damaged) ([2]; 5 mg/kg oral, after 31 days) | activity against bed bugs (≥80% inhibition, killed+damaged) ([2]; 5 mg/kg oral, after 35 days) | activity against bed bugs (≥80% inhibition, killed+damaged) [2, 5] | activity against bed bugs (≥80% inhibition, killed+damaged) [2, 6] | activity against bed bugs (≥80% inhibition, killed+damaged) [2, 7] | activity against bed bugs (≥80% inhibition, killed+damaged) [2, 8] | activity against bed bugs (≥80% inhibition, killed+damaged) [2, 10] | activity against bed bugs (≥80% inhibition, killed+damaged) [2, 11] | activity against bed bugs (≥80% inhibition, killed+damaged) [2, 12] | activity against bed bugs (≥80% inhibition, killed+damaged) [2, 13] | activity against bed bugs (≥80% inhibition, killed+damaged) [2, 15]
immediate activity: activity against tick nymphs (≥80% inhibition, killed+damaged) ([1]; 5 mg/kg oral, Day 0) | activity against tick nymphs (≥80% inhibition, killed+damaged) ([1]; 5 mg/kg subcutaneous, Day 0) | activity against bed bugs (≥80% inhibition, killed+damaged) ([2]; 5 mg/kg oral, Day 0) | activity against bed bugs (≥80% inhibition, killed+damaged) ([2]; 5 mg/kg subcutaneous, Day 0)

O=C(Nc1ccc(F)cc1F)c1cc(NC(=O)C2C(c3cc(C(F)(F)F)cc(C(F)(F)F)c3)C2(Cl)Cl)ccc1Cl (stereo not shown) [Compound 472]
immediate activity: activity against tick nymphs (≥80% inhibition, killed+damaged) ([1]; 5 mg/kg oral, Day 0) | activity against tick nymphs (≥80% inhibition, killed+damaged) ([1]; 5 mg/kg subcutaneous, Day 0) | activity against bed bugs (≥80% inhibition, killed+damaged) ([2]; 5 mg/kg oral, Day 0) | activity against bed bugs (≥80% inhibition, killed+damaged) ([2]; 5 mg/kg subcutaneous, Day 0)

O=C(Nc1ncc(F)cc1F)c1cc(NC(=O)C2C(c3cc(Cl)cc(C(F)(F)F)c3)C2(Cl)Cl)ccc1Cl (stereo not shown) [Compound 475]
activity: activity against tick nymphs (≥80% inhibition, killed+damaged) ([1]; 5 mg/kg oral, after 7 days) | activity against tick nymphs (≥80% inhibition, killed+damaged) ([1]; 5 mg/kg oral, after 10 days) | activity against tick nymphs (≥80% inhibition, killed+damaged) ([1]; 5 mg/kg oral, after 14 days) | activity against tick nymphs (≥80% inhibition, killed+damaged) ([1]; 5 mg/kg oral, after 17 days) | activity against tick nymphs (≥80% inhibition, killed+damaged) [1, 5] | activity against tick nymphs (≥80% inhibition, killed+damaged) [1, 6] | activity against tick nymphs (≥80% inhibition, killed+damaged) [1, 7] | activity against tick nymphs (≥80% inhibition, killed+damaged) [1, 8] | activity against tick nymphs (≥80% inhibition, killed+damaged) [1, 10] | activity against tick nymphs (≥80% inhibition, killed+damaged) [1, 11] | activity against tick nymphs (≥80% inhibition, killed+damaged) [1, 12] | activity against tick nymphs (≥80% inhibition, killed+damaged) [1, 13] | activity against tick nymphs (≥80% inhibition, killed+damaged) [1, 15] | activity against bed bugs (≥80% inhibition, killed+damaged) ([2]; 5 mg/kg oral, after 7 days) | activity against bed bugs (≥80% inhibition, killed+damaged) ([2]; 5 mg/kg oral, after 10 days) | activity against bed bugs (≥80% inhibition, killed+damaged) ([2]; 5 mg/kg oral, after 14 days) | activity against bed bugs (≥80% inhibition, killed+damaged) ([2]; 5 mg/kg oral, after 17 days) | activity against bed bugs (≥80% inhibition, killed+damaged) ([2]; 5 mg/kg oral, after 21 days) | activity against bed bugs (≥80% inhibition, killed+damaged) ([2]; 5 mg/kg oral, after 24 days) | activity against bed bugs (≥80% inhibition, killed+damaged) ([2]; 5 mg/kg oral, after 28 days) | activity against bed bugs (≥80% inhibition, killed+damaged) [2, 5] | activity against bed bugs (≥80% inhibition, killed+damaged) [2, 6] | activity against bed bugs (≥80% inhibition, killed+damaged) [2, 7] | activity against bed bugs (≥80% inhibition, killed+damaged) [2, 8] | activity against bed bugs (≥80% inhibition, killed+damaged) [2, 10] | activity against bed bugs (≥80% inhibition, killed+damaged) [2, 11] | activity against bed bugs (≥80% inhibition, killed+damaged) [2, 12] | activity against bed bugs (≥80% inhibition, killed+damaged) [2, 13]
100%: effective to control ticks [1, 14] | effective to control bed bugs [2, 14]
immediate activity: activity against tick nymphs (≥80% inhibition, killed+damaged) ([1]; 5 mg/kg oral, Day 0) | activity against tick nymphs (≥80% inhibition, killed+damaged) ([1]; 5 mg/kg subcutaneous, Day 0) | activity against bed bugs (≥80% inhibition, killed+damaged) ([2]; 5 mg/kg oral, Day 0) | activity against bed bugs (≥80% inhibition, killed+damaged) ([2]; 5 mg/kg subcutaneous, Day 0)

Cc1cc(N)ccc1NC(=O)c1cc(NC(=O)C2C(c3ccc(F)c(Cl)c3)C2(Cl)Cl)ccc1Cl (stereo not shown) [c50]
A (50-100): Test B: Bioassay on CL, percent mortality rating [3]
A (80-100): Test C: Bioassay on Yellow Fever Mosquito, mortality rating [4]

Cc1cc(N)ccc1NC(=O)c1cc(NC(=O)C2C(c3cc(Cl)cc(Cl)c3)C2(Cl)Cl)ccc1Cl (stereo not shown) [c82]
A (80-100): Test C: Bioassay on Yellow Fever Mosquito, mortality rating [4]
A (50-100): Test B: Bioassay on CL, percent mortality rating [3]

Cc1cc(N)ccc1NC(=O)c1cc(NC(=O)C2C(c3cc(Cl)cc(Cl)c3)C2(Cl)Cl)ccc1Cl (stereo not shown) [c83]
A (80-100): Test C: Bioassay on Yellow Fever Mosquito, mortality rating [4]
A (50-100): Test B: Bioassay on CL, percent mortality rating [3]
